Test results as given in patent publication US6245738A, “Cytokine restraining agents” (Trega Biosciences, Inc., priority 1994, dated 2001).
Square brackets hold non-standard residues; d marks the D form. Peptide text beside a SMILES is read from it.

Experiments:
TNF-α [1] = experiment: Reduction of LPS-induced TNF-α levels in mice (ip peptide), plasma ELISA; assay type: in vivo, Balb/c female mice; settings: 1 min before 5 mg/kg LPS ip, vs control mice
Description: Balb/c female mice weighing approximately 20 g were placed into two groups, a control group and a treated group. Five mg/kg of LPS in 0.9% saline was administered by intraperitoneal (ip) injection into the control mice. Mice in the treated group were first injected ip with 30 μg EX-2 or 150 μg EX-3 in saline, then, one minute after EX-2 or EX-3 was administered, the mice received LPS as described for the control group.
Blood samples were collected from the orbital sinus of treated and control mice at various times up to four hours after LPS was administered. The plasma was separated by centrifugation at 3000×g for 5 min, then diluted with four volumes of 1× phosphate buffer saline (pH 7.4) containing 1% bovine serum albumin. A 100 μl sample of serum was assayed by ELISA for TNF-α (Genzyme; Cambridge Mass.).
The mean (+/-SEM) TNF-α level in six mice from each group was determined and the percent reduction in TNF levels was calculated.

LPS-induced lethality [2] = experiment: Lipopolysaccharide-induced lethality (ip peptide); assay type: in vivo, adult female Balb/c mice; settings: 11 × 300 μg/mouse ip (3.3 mg total), every 4 hr; 0.6 mg LPS
Description: These experiments were performed based on information reported by Rivier et al., Endocrinology 125:2800-2805 (1989), which is incorporated herein by reference. Adult female Balb/c mice were provided food and water ad libitum. Mice were injected ip every four hours for 40 hr with 30 to 300 μg EX-2 or EX-3 in 0.2 ml saline (treated group) or with 0.2 ml saline, alone (control group) (10 mice per group). Immediately following the first injection, 0.6 mg LPS endotoxin in 0.2 ml saline was administered to each mouse. Following LPS injection, EX-2 or saline was administered to the treated mice or the control mice, respectively, every 4 hr for 36 hr.

[3] = system: IL-1β-induced hyperalgesia; experiment: Interleukin-1β-induced hyperalgesia, paw pressure test; assay type: in vivo, adult male Sprague-Dawley rats; settings: 1 μg ip, 20 min before intraplantar IL-1β; 2 hr after IL-1
Description: These experiments were performed using a modification of the methods described by Poole et al., Br. J. Pharmacol. 106:489-492 (1992); Follenfant et al., Br. J. Pharmacol. 98:41-43 (1989); and Randall and Sellito, Arch. Internatl. Pharmacodyn. 111:409-419 (1957), each of which is incorporated herein by reference. Adult male Sprague-Dawley rats (175-275 g) were tested for hyperalgesia by a paw pressure technique using variable pressure instrumentation (IITC Life Sciences; Woodland Hills, Calif.). Rats were acclimated to the housing environment and were handled for three days prior to beginning a training session. On the day before the hyperalgesia experiments was to begin, each rat was placed into a sock and two variable paw pressure tests were performed 15 min apart. […] Approximately 5-10% of the rats were non-responders and were eliminated from further experiments.
Animals that responded to the paw pressure were pretreated by ip injection of various concentrations of EX-2 in a volume of 1 ml/kg (treated) or saline, alone (control). After 20 min, 100 μl of IL-1β (1U/100 μl) was administered to rats via intraplantar injection. Two hr after IL-1 administration, rats were subjected to two additional paw pressure tests and the increase in mm Hg of pressure that could be applied to the EX-2-treated rats as compared to the control rats was determined.

[4] = system: arachidonic acid-induced ear swelling; experiment: Arachidonic acid-induced ear swelling; assay type: in vivo, female Balb/c mice; settings: 100 μg/mouse ip, 30 min prior to AA; 60 min after AA application
Description: Experiments were performed using female Balb/c mice weighing 18-23 grams. Saline or 100 μg EX-2 or EX-3 was administered ip, 30 min prior to topical application of arachidonic acid (AA). A 10 μl pipet was used to apply 10 μl AA solution (100 mg/ml ethanol; Calbiochem-Novabiochem; San Diego, Calif.) to the inner and outer surfaces of the right ear of each mouse. Ten μl ethanol, alone, was applied to the inner and outer surface of the left ear of each mouse. Ear thickness was measured with a hand-held spring loaded caliper immediately before and 60 min after AA application. Increase in ear thickness was calculated by subtracting the change observed in the control ear from the change observed in AA-treated ear. The value for each group (saline and control) is the average of the swelling observed in the individual mice in each group. The percent reduction of swelling is based on the swelling observed in the saline control group.

[5] = system: LPS-induced PMN infiltration in lungs; experiment: Adult respiratory distress syndrome: PMN count in broncho-alveolar lavage after intratracheal LPS; assay type: in vivo, male Harlan Sprague-Dawley rats; settings: 100 μg/kg ip at 0, 2 and 4 hr; lavage at 6 hr after intratracheal LPS 5 mg/kg
Description: These experiments were performed using a modification of the methods described by Ulich et al., Am. J. Pathol. 141:61-68 (1992) and by Wheelden et al., Lab. Animals 26:29-37 (1992), each of which is incorporated herein by reference. Male Harlan Sprague-Dawley rats were anesthetized using a mixture of 70 mg/kg ketamine and 6 mg/kg rompun injected ip. A 2-3 cm incision was made in the neck of each anesthetized rat and its trachea was exposed by blunt dissection of the surrounding soft tissue. The rats were suspended on a near vertical slab and intratracheal injections were performed by inserting into the exposed trachea, at a point 1 cm posterior to the larynx, a 25G×1/2 inch needle attached to a 1 cc syringe.
Each rat received 0.5 ml/kg of saline or 0.5 ml/kg of 10 mg/ml (5 mg/kg) LPS endotoxin via slow intratracheal administration. Immediately following administration of the LPS endotoxin, rats were injected ip with 1 ml/kg of either saline (control) or saline containing various concentrations of EX-2 (treated). The rats were maintained in the elevated position for 1-2 min to facilitate distribution of the LPS and saline into the lung. The incisions were closed and the rats were allowed to recover. […]
The total polymorphonuclear leukocytes (PMN; neutrophils) in the broncho-alveolar lavage fluid were counted in the EX-2-treated rats and compared with the number in the control rats.

interleukin-6 (IL-6) = experiment: Reduction of LPS-induced interleukin-6 levels in mice, IL-6-specific ELISA; assay type: in vivo, Balb/c mice; settings: 300 μg/mouse (Table I), LPS treated mice; vs control mice
Description: Balb/c mice were grouped and treated as described in Example III, above. Blood samples were obtained from the orbital sinus at various times up to six hours and serum was collected and diluted as described above. A 100 μl aliquot was assayed for IL-6 levels using an IL-6-specific ELISA by a modification of the method of Starnes et al., J. Immunol. 145:4185-4194 (1990), which is incorporated herein by reference.
The mean (+/-SEM) IL-6 level in six mice from each group was determined and the percent reduction in IL-6 was calculated.

TNF-α [6] = experiment: LPS-induced TNF-α levels, orally administered peptide (gavage); assay type: in vivo, Balb/c female mice; settings: 1 min before 0.1 mg LPS ip
Description: The ability of orally administered cytokine restraining agents to reduce LPS-induced TNF-α levels also was examined. Balb/c female mice (20 g) were administered 150 μg or 300 μg EX-2, EX-3, EX-4 or EX-5 in 100 μl saline by gavage. Control mice received 100 μl saline, alone. One minute later, 0.1 mg LPS was administered by ip injection. Samples were collected and TNF-α levels were determined as described in Example III, above.
The mean TNF-α levels in the mice from each group (n=9-20) was determined and the percent reduction in TNF-α levels was calculated.

LPS-induced lethality [7] = experiment: LPS-induced lethality, orally administered peptide (gavage); assay type: in vivo, adult female Balb/c mice; settings: 0.6 mg LPS ip
Description: The LPS-induced lethality studies were performed based on information reported by Rivier et al., supra, 1989. Adult female Balb/c mice were provided food and water ad libitum. Mice were administered 150 μg or 300 μg EX-2, EX-3, EX-4 or EX-5 in 100 μl saline by gavage every 4 hr for 40 hr (total doses of 1.65 mg and 3.3 mg, respectively). Control mice received 100 μl saline, alone. Immediately following the first dose of cytokine restraining agent or saline, 0.6 mg LPS in 0.2 ml saline was administered by ip injection.

[8] = 3.3 mg total (300 μg by gavage every 4 hr for 40 hr)

| SMILES | Inhibition of LPS-induced Lethality (increase in survival) (LPS-induced lethality [2]) [%] | Reduction in arachidonic acid-induced Ear Swelling [4] [%] | percent reduction in TNF-α levels, oral (TNF-α [6]; 300 μg by gavage) [%] | increase in survival, oral (LPS-induced lethality [7]; [8]) [%] | further results |
| --- | --- | --- | --- | --- | --- |
| CCCC[C@H](NC(C)=O)C(=O)N[C@@H](CCC(N)=O)C(=O)N[C@@H](Cc1c[nH]cn1)C(=O)N[C@H](Cc1ccccc1)C(=O)N[C@@H](CCCNC(=N)N)C(=O)N[C@H](Cc1c[nH]c2ccccc12)C(=O)NCC(N)=O [EX-2, Ac-Nle-Gln-His-(D)Phe-Arg-(D)Trp-Gly-NH2] | 83 | 72 | – | – | Reduction in TNF levels (TNF-α [1]; 30 μg/mouse ip): 50%; Reduction in IL-1-induced Hyperalgesia (increase in tolerated paw pressure) [3]: 125%; Reduction in LPS-induced PMN Count [5]: 58%; Reduction in IL-6 levels (interleukin-6 (IL-6)): 60% |
| CC(=O)N[C@H](C(=O)N[C@@H](CCC(N)=O)C(=O)N[C@@H](Cc1c[nH]cn1)C(=O)N[C@H](Cc1ccccc1)C(=O)N[C@@H](CCCNC(=N)N)C(=O)N[C@H](Cc1c[nH]c2ccccc12)C(=O)NCC(N)=O)C1CCCCC1 [EX-3, Ac-(cyclohexyl)Gly-Gln-His-(D)Phe-Arg-(D)Trp-Gly-NH2] | 86 | 62 | 40 | – | Reduction in TNF levels (TNF-α [1]; 150 μg/mouse ip): 56%; percent reduction in TNF-α levels, oral (TNF-α [6]; 150 μg by gavage): 49% |
| CC(=O)N[C@@H](Cc1c[nH]cn1)C(=O)N[C@H](Cc1ccccc1)C(=O)N[C@@H](CCCNC(=N)N)C(=O)N[C@H](Cc1c[nH]c2ccccc12)C(=O)NCC(N)=O [EX-4, Ac-His-(D)Phe-Arg-(D)Trp-Gly-NH2] (Ac-H[dF]R[dW]G-NH2) | – | – | 44 | 63 | – |
| CC(=O)N[C@@H](Cc1c[nH]cn1)C(=O)N[C@H](Cc1ccccc1)C(=O)N[C@@H](CCCNC(=N)N)C(=O)N[C@H](Cc1c[nH]c2ccccc12)C(N)=O [EX-5, Ac-His-(D)Phe-Arg-(D)Trp-NH2] | – | – | – | 44 | increase in survival, oral (LPS-induced lethality [7]; 1.65 mg total (150 μg by gavage every 4 hr for 40 hr)): 68% |
